From patent publication US10017515B2, “Stable amorphous ticagrelor and a process for its preparation” (Sun Pharmaceutical Industries Limited, priority 2014, dated 2018)

Experiments:
[1] = Stability on storage, X-ray powder diffraction (XRPD) pattern; format: physicochemical
Description: The X-ray powder diffraction (XRPD) pattern was recorded using a PANalytical® X'pert PRO with X'celerator® as the detector.

[2] = Stability on storage, HPLC purity; format: physicochemical; details: material of Example 6
Description: HPLC purity (initial and at stability at a temperature of 25° C.±2° C. at relative humidity of 60% ±5% for 1, 2, 3, and 6 months): 99.8%
HPLC purity (initial and at stability at a temperature of 5° C.±3° C. for 3 and 6 months): 99.9%

[3] = 25° C.±2° C., relative humidity 60% ±5%, for 1, 2, 3, and 6 months

Change in XRPD pattern on storage ([1]; 5° C.±3° C. for 3 and 6 months, listed as stable amorphous ticagrelor): no change in XRPD pattern
Change in XRPD pattern on storage ([1]; 25° C.±2° C., relative humidity 60% ±5%, for 1, 2, 3, and 6 months, listed as stable amorphous ticagrelor): no change in XRPD pattern
HPLC purity (initial and at stability) ([2]; 5° C.±3° C. for 3 and 6 months): 99.9%
HPLC purity (initial and at stability) [2, 3]: 99.8%
Structure (SMILES): CCCSc1nc(N[C@@H]2C[C@H]2c2ccc(F)c(F)c2)c2nnn([C@@H]3C[C@H](OCCO)[C@@H](O)[C@H]3O)c2n1 [amorphous ticagrelor, (1S,2S,3R,5S)-3-[7-{[(1R,2S)-2-(3,4-difluorophenyl)cyclopropyl]amino}-5-(propylthio)-3H-[1,2,3]-triazolo[4,5-d]pyrimidin-3-yl]-5-(2-hydroxyethoxy)cyclopentane-1,2-diol]
Change in XRPD pattern on storage ([1]; 5° C.±3° C. for 3 and 6 months): no change was observed in the XRPD pattern
Change in XRPD pattern on storage [1, 3]: no change was observed in the XRPD pattern
